Results: the NIST ThermoML archive (doi:10.1021/acs.jced.6b00120)

Experiment: xn = mol fraction of the nth substance listed
Conditions: Gas, Buoyancy - hydrostatic balance with magnetic suspension - two sinkers, x1 = 0.05049

[Ar] [argon] + O=C=O
Conditions	mass density [kg/m3]
273.15 K, 526.54 kPa	10.5097
273.15 K, 1045.7 kPa	21.6518
273.15 K, 2054.6 kPa	46.254
273.15 K, 2521.6 kPa	59.4639
273.15 K, 2948.2 kPa	72.995
283.15 K, 487.17 kPa	9.32016
283.15 K, 1034 kPa	20.4562
283.15 K, 2045.6 kPa	43.428
283.15 K, 3054.1 kPa	70.7119
283.15 K, 4058.4 kPa	105.393
293.15 K, 501.22 kPa	9.23865
293.15 K, 1009.9 kPa	19.1313
293.15 K, 2033.5 kPa	40.9568
293.15 K, 3031.1 kPa	65.5032
293.15 K, 4032.7 kPa	95.0463
293.15 K, 5045.2 kPa	133.561
293.15 K, 5530.5 kPa	157.768
308.15 K, 493.91 kPa	8.62503
308.15 K, 996.02 kPa	17.7876
308.15 K, 2002.5 kPa	37.5504
308.15 K, 3004.5 kPa	59.5083
308.15 K, 4005.8 kPa	84.4871
308.15 K, 5012.9 kPa	113.924
308.15 K, 6005.3 kPa	149.364
308.15 K, 6991.8 kPa	195.441
308.15 K, 7418.4 kPa	221.117
308.15 K, 7793.4 kPa	248.529
323.15 K, 521.21 kPa	8.65936
323.15 K, 1030.2 kPa	17.4463
323.15 K, 2009.8 kPa	35.3997
323.15 K, 3012.4 kPa	55.4385
323.15 K, 4030.3 kPa	77.9178
323.15 K, 5045.6 kPa	103.062
323.15 K, 6032.4 kPa	130.908
323.15 K, 7032.7 kPa	163.762
323.15 K, 8023.8 kPa	202.754
323.15 K, 8533.5 kPa	226.233
323.15 K, 8988 kPa	249.635
